Laboratory results taken from US4962110A, “Pyridazinone derivatives” (Smith Kline & French Laboratories Limited, priority 1989, dated 1990).

Columns and labels:
PDE (Peak III) = experiment: Inhibition of phosphodiesterase PDE (Peak III) from cat heart; details: read-out: IC50 PDE (Peak III); 1 μM cyclic AMP, 37°, pH 7.5
Experimental: (§1) The enzyme was assayed by incubation at 37° for 4-30 min in 50 mM Tris, 5 mM MgCl2, pH 7.5 with [3-H] cyclic nucleotide (4×10^5 disintegrations min^-1) and [14-C] nucleotide 5' monophosphate (3-10^3 disintegrations min^-1). The assay was stopped by boiling, and the [3-H] […] The reaction mixture was diluted with 0.5 ml 100 mM HEPES (N-2-Hydroxyethylpiperazine-N'-2-ethanesulfonic acid), 100 mM NaCl, pH 8.5, and applied to the column. […] The recovery of product as judged by [14-C] recovery was approximately 80%. All assays were linear with time of incubation and concentration of enzyme over the range used in these experiments.

[1] = tested on: right ventricular strips (force of contraction); experiment: Cardiac stimulant activity in vitro: force of contraction of electrically stimulated guinea pig ventricular strips; parameters: species or system Guinea pigs; details: Cavia porcellus, read-out: EC50 (50% increase in the force of contraction of the ventricular strips); guinea pig right ventricle strips, Krebs Henseleit, 37° C., 1.0 Hz, cumulative concentration response
Experimental: CARDIAC STIMULANT ACTIVITY--IN VITRO
The compounds of formula (I) and their pharmaceutically acceptable salts are tested for cardiac stimulant activity following a procedure based on that of S. C. Verma and J. H. McNeill (J. Pharm & Exp. Therapeutics, 200, 352-362 (1977)). Guinea pigs (500-700 g) of either sex are sacrificed and the hearts are quickly removed and transferred to a dissecting dish containing oxygenated bathing fluid. While in the bathing medium, the right ventricle is cut into two strips. The strips are each suspended in a 50 ml bath containing Krebs Henseleit solution at 37° C., and the bath is bubbled with 95% oxygen and 5% carbon dioxide. The ventricular strips are electrically stimulated at a frequency of 1.0 Hz, at double the threshold voltage. A resting tension of 1.0 g is applied to the strips and the tension is kept constant by readjustment during an equilibration period of 60 minutes. The bathing fluid is frequently changed during this period. When a steady base line is obtained, a compound under test is added to the bathing fluid and a cumulative concentration response curve is plotted.

PDE (Peak II) = details: in words
Experimental: as §1

PDE (Peak I) = experiment: Characterisation of PDE (Peak I) from cat heart: substrate kinetics; type: biochemical

Row | IC50 (PDE (Peak III)) [µM] | Compound | also measured
1 | 51.8 | Nc1cc(-c2ccncc2)c[nH]c1=O [Amrinone] | 
2 | 0.45 | Cc1cc(=O)nc(Nc2ccc(C3=NNC(=O)CC3C)cc2)[nH]1 (centres unmarked) [Example 2, 6-[4-(1,4-Dihydro-6-methyl-4-oxo-2-pyrimidinylamino)phenyl]-5-methyl-4,5-dihydro-3(2H)-pyridazinone] | 
3 | 0.15 | CC1CC(=O)NN=C1c1ccc(Nc2nc(=O)c3ccccc3[nH]2)cc1 (centres unmarked) [Example 4, 6-[4-(1,4-Dihydro-4-oxo-2-quinazolinylamino)phenyl]-5-methyl-4,5-dihydro-3(2H)-pyridazinone] | 

The next lines start with the compound.

Row | Compound | IC50 (PDE (Peak III)) [µM] | also measured
4 | CC1CC(=O)NN=C1c1ccc(Nc2nc(=O)cc[nH]2)cc1 (centres unmarked) [Example 1, 6-[4-(1,4-Dihydro-4-oxo-2-pyrimidinylamino)phenyl]-5-methyl-4,5-dihydro-3(2H)-pyridazinone] | 0.69 | EC50 [1]: 0.6 µM
5 | Cc1c[nH]c(Nc2ccc(C3=NNC(=O)CC3C)cc2)nc1=O (centres unmarked) [Example 3, 6-[4-(1,4-Dihydro-5-methyl-4-oxo-2-pyrimidinylamino)-phenyl]-5-methyl-4,5-dihydro-3(2H)-pyridazinone] | 1.12 | 
6 | Cc1[nH]c(=O)c(C#N)cc1-c1ccncc1 [Milrinone] | 2.2 | 
7 | Nc1nc2c(ncn2[C@@H]2O[C@@H]3COP(=O)(O)O[C@H]3[C@H]2O)c(=O)[nH]1 [cyclic GMP] |  | affinity (PDE (Peak II)): relatively low affinities; affinity (PDE (Peak I); in words): high affinity; Km (PDE (Peak I); with 50 μg/ml calmodulin): 1.4 µM; Relative Vmax (PDE (Peak I); with 50 μg/ml calmodulin): 7.2
